Measured values: the Kinase Knowledgebase extract (Sharma et al. 2016)
Where “and” joins values, the source holds several entries; their conditions need not be identical. Identical values can stand only once.

Target: PIK3CA (human) (UniProt P42336)
Assay: Enzyme Assay

Chain of PIK3CA (human) (P42336 whole entry, looked up): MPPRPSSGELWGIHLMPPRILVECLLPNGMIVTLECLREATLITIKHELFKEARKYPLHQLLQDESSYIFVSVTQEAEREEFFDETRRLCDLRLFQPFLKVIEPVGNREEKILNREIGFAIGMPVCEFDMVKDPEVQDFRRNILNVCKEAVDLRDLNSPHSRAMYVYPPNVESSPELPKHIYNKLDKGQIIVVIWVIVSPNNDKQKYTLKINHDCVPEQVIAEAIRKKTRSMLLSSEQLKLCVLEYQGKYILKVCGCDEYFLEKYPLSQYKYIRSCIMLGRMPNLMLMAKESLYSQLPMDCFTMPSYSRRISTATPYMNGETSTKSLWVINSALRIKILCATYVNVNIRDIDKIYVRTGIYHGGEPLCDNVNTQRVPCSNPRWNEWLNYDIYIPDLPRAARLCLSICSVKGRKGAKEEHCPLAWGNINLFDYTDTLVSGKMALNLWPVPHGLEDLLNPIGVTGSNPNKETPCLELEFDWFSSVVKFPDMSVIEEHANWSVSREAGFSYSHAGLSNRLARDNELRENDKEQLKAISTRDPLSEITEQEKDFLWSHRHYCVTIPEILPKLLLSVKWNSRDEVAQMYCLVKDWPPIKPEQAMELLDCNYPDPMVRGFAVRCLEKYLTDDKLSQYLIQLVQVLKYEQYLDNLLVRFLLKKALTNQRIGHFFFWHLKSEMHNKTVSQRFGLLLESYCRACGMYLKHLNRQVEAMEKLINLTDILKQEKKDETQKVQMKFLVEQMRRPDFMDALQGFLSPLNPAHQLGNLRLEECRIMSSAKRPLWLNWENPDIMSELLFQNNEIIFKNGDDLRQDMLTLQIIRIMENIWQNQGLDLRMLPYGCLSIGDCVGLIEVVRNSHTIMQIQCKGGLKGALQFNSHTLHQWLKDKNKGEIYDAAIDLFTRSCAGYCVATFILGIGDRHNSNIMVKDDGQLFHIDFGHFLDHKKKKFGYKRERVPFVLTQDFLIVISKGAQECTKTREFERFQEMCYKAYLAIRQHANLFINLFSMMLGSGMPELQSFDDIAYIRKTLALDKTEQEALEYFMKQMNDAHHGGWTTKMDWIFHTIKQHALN

Q: CCc1ncnc(-c2ccc(C(=O)N3C[C@H]4C[C@@H]3CN4C)c(F)c2)c1C#Cc1ccc(N)nc1 was tested. Which IC50 did it give?
A: 0.333 µM

Q: CCc1ncnc(-c2ccc(C(=O)N(C)CCN3CCCC3=O)c(C)c2)c1C#Cc1ccc(N)nc1 was tested. Which IC50 did it give?
A: 0.0318 µM

Q: For CCc1ncnc(-c2ccc(C(=O)N3CCN4CCCCC4C3)c(C)c2)c1C#Cc1ccc(N)nc1 (configuration not stated), which IC50 is on record?
A: 0.115 µM

Q: CCc1ncnc(-c2ccc(C(=O)N3CCN(c4ccncc4)CC3)c(Cl)c2)c1C#Cc1ccc(N)nc1 was tested. Which IC50 did it give?
A: 0.209 µM

Q: With CCc1ncnc(-c2ccc(C(=O)NC3CC(N4CCC(O)CC4)C3)c(F)c2)c1C#Cc1ccc(N)nc1 (configuration not stated) as the molecule, how does the IC50 read?
A: 0.351 µM

Q: With CCc1ncnc(-c2ccc(C(=O)N3CCC(C)(O)CC3)c(F)c2)c1C#Cc1ccc(N)nc1 as the molecule, how does the IC50 read?
A: 0.11 µM

Q: Which IC50 does the source give for Cc1ncnc(-c2ccc(Cl)c(C(=O)N3CCCCC3)c2)c1C#Cc1ccc(N)nc1 here?
A: 0.309 µM

Q: For CCc1ncnc(-c2ccc(C(=O)N3CCN(C4CCCC4)CC3)c(C)c2)c1C#Cc1ccc(N)nc1, which IC50 is on record?
A: 0.0907 µM

Q: CCc1ncnc(-c2ccc(C(=O)N3CC[C@@H](O)C3)c(Cl)c2)c1C#Cc1ccc(N)nc1 was tested. Which IC50 did it give?
A: 0.0656 µM

Q: CCc1ncnc(-c2ccc(C(=O)N3CCC(C)(O)CC3)c(Cl)c2)c1C#Cc1ccc(N)nc1 was tested. Which IC50 did it give?
A: 0.077 µM

Q: CCc1ncnc(-c2ccc(C(=O)N3CC[S+]([O-])CC3)c(Cl)c2)c1C#Cc1ccc(N)nc1 was tested. Which IC50 did it give?
A: 0.0636 µM and 0.064 µM

Q: For CCc1ncnc(-c2ccc(C(=O)N3CCOC(C)(C)C3)c(F)c2)c1C#Cc1ccc(N)nc1, which IC50 is on record?
A: 0.108 µM

Q: How did the IC50 turn out when CCc1ncnc(-c2ccc(C(=O)NC3CCCN(C)C3)c(Cl)c2)c1C#Cc1ccc(N)nc1 (configuration not stated) was run?
A: 0.51 µM

Q: How did the IC50 turn out when CCc1ncnc(-c2ccc(C(=O)N3CCC(OC)CC3)c(C)c2)c1C#Cc1ccc(N)nc1 was run?
A: 0.0678 µM

Q: How did the IC50 turn out when CCc1ncnc(-c2ccc(C(=O)N3CC[C@@H](N(C)C)C3)c(OC)c2)c1C#Cc1ccc(N)nc1 was run?
A: 0.357 µM

Q: Which IC50 does the source give for CCc1ncnc(-c2ccc(C(=O)N3CCC[C@H]3CO)c(F)c2)c1C#Cc1ccc(N)nc1 here?
A: 0.136 µM

Q: With CCc1ncnc(-c2ccc(C(=O)N3CCC(C4CCN(C)CC4)CC3)c(Cl)c2)c1C#Cc1ccc(N)nc1 as the molecule, how does the IC50 read?
A: 0.374 µM

Q: For CCNc1ccc(C#Cc2c(CC)ncnc2-c2ccc(C(=O)N3CCN(C4CCC4)CC3)c(F)c2)cn1, which IC50 is on record?
A: 0.206 µM

Q: How did the IC50 turn out when CCc1ncnc(-c2ccc(C(=O)N3CCC(N(C)C)CC3)c(C)c2)c1C#Cc1ccc(N)nc1 was run?
A: 0.232 µM

Q: Which IC50 does the source give for CCc1ncnc(-c2ccc(C(=O)N3CCC(N4CCN(C)CC4)CC3)c(C)c2)c1C#Cc1ccc(N)nc1 here?
A: 0.307 µM

Q: How did the IC50 turn out when CCc1ncnc(-c2ccc(C(=O)N3CCC(N4CCC(C)CC4)C3)c(C)c2)c1C#Cc1ccc(N)nc1 (configuration not stated) was run?
A: 0.2 µM

Q: Which IC50 does the source give for CCc1ncnc(-c2ccc(C(=O)N3CC(O)CO3)c(F)c2)c1C#Cc1ccc(N)nc1 (configuration not stated) here?
A: 0.064 µM

Q: How did the IC50 turn out when CCc1ncnc(-c2ccc(C(=O)N3CC[S+]([O-])CC3)c(F)c2)c1C#Cc1ccc(N)nc1 was run?
A: 0.046 µM

Q: How did the IC50 turn out when CCc1ncnc(-c2ccc(C(=O)N3CCN(S(=O)(=O)CC)CC3)c(C)c2)c1C#Cc1ccc(N)nc1 was run?
A: 0.0368 µM

Q: CCc1ncnc(-c2ccc(Cl)c(C(=O)N(C)C)c2)c1C#Cc1ccc(N)nc1 was tested. Which IC50 did it give?
A: 0.194 µM

Q: How did the IC50 turn out when CCc1ncnc(-c2cc(F)c(C(=O)N3CCC4(CC3)CC(=O)CO4)c(F)c2)c1C#Cc1ccc(N)nc1 was run?
A: 0.144 µM

Q: How did the IC50 turn out when CCc1ncnc(-c2ccc(C(=O)N3CC[C@H](O)C3)c(Cl)c2)c1C#Cc1ccc(N)nc1 was run?
A: 0.058 µM

Q: How did the IC50 turn out when CCc1ncnc(-c2ccc(C(=O)N(C)C)c(F)c2)c1C#Cc1ccc(C)nc1 was run?
A: 0.222 µM

Q: For CCc1ncnc(-c2ccc(C(=O)N3CCN(C(C)C)CC3)c(Cl)c2)c1C#Cc1ccc(N)nc1, which IC50 is on record?
A: 0.246 µM

Q: Which IC50 does the source give for CCc1ncnc(-c2ccc(C(=O)N(C)O)c(Cl)c2)c1C#Cc1ccc(N)nc1 here?
A: 0.0674 µM

Q: With CCc1ncnc(-c2ccc(C(=O)N3CCCOCC3)c(Cl)c2)c1C#Cc1ccc(N)nc1 as the molecule, how does the IC50 read?
A: 0.0653 µM

Q: With CCc1ncnc(-c2ccc(C(=O)N3CCN(CC4CC4)CC3)c(Cl)c2)c1C#Cc1ccc(N)nc1 as the molecule, how does the IC50 read?
A: 0.228 µM

Q: For CCc1ncnc(-c2ccc(C(=O)N3CCC(OC)CC3)c(F)c2)c1C#Cc1ccc(N)nc1, which IC50 is on record?
A: 0.082 µM

Q: Which IC50 does the source give for CCc1ncnc(-c2ccc(C(=O)N3CCNCC3)c(Cl)c2)c1C#Cc1ccc(N)nc1 here?
A: 0.164 µM

Q: How did the IC50 turn out when CCc1ncnc(-c2ccc(C(=O)N3CCC(O)CC3)c(Cl)c2)c1C#Cc1ccc(N)nc1 was run?
A: 0.0529 µM

Q: CCc1ncnc(-c2ccc(C(=O)N3CCC(C(F)(F)F)CC3)c(Cl)c2)c1C#Cc1ccc(N)nc1 was tested. Which IC50 did it give?
A: 0.499 µM

Q: For CCc1ncnc(-c2ccc(C(=O)N3CCC(C(C)(C)O)CC3)c(Cl)c2)c1C#Cc1ccc(N)nc1, which IC50 is on record?
A: 0.101 µM

Q: For CCc1ncnc(-c2ccc(C(=O)N3CCCN(C)CC3)c(Cl)c2)c1C#Cc1ccc(N)nc1, which IC50 is on record?
A: 0.405 µM

Q: CCc1ncnc(-c2ccc(C(=O)N3CCCC(O)C3)c(Cl)c2)c1C#Cc1ccc(N)nc1 (configuration not stated) was tested. Which IC50 did it give?
A: 0.065 µM

Q: CCc1ncnc(-c2ccc(C(=O)N3CCCC(N(C)C)C3)c(C)c2)c1C#Cc1ccc(N)nc1 (configuration not stated) was tested. Which IC50 did it give?
A: 0.173 µM

Q: For CCc1ncnc(-c2ccc(C(=O)N3CCN(CCN(C)C)CC3)c(Cl)c2)c1C#Cc1ccc(N)nc1, which IC50 is on record?
A: 0.37 µM

Q: CCc1ncnc(-c2ccc(C(=O)N3CCC(OC)CC3)c(Cl)c2)c1C#Cc1ccc(N)nc1 was tested. Which IC50 did it give?
A: 0.0935 µM
